In PMC7481439 (Frontiers in Pediatrics, 2020):
Marks after values point to notes of the source that are not given here.

Columns and labels:
[1] = volume of distribution, listed under physico-chemical data; source not stated for Vd; cited from earlier work
[2] = adult centrifugal-based circuit, volume 670 ml, n = 4, ref Shekar ([22]); cited from earlier work
[3] = neonatal centrifugal-based circuit, volume 200 ml, recovery at 180 min, n = 2; ref Wildschut ([18]); cited from earlier work
[4] = Spontaneous drug degradation (T2 control sample analysed at 24 h); settings: whole blood control sample drawn at 2 min, kept in EDTA tube at the temperature of the circuits until 24 h; difference in drug recovery between T2 and T2-24; average
[5] = adult centrifugal-based circuit, volume 800 ml, n = 3, ref Lemaitre ([39]); cited from earlier work
[6] = In vitro closed-loop ECMO circuit model: drug recovery / sequestration
[7] = Table 2; Drug Bank online database; cited from earlier work
[8] = design: method as in PMID 18048412; settings: Drug Bank online database; cited from earlier work

CN[C@H](CC(C)C)C(=O)N[C@H]1C(=O)N[C@@H](CC(N)=O)C(=O)N[C@H]2C(=O)N[C@H]3C(=O)N[C@H](C(=O)N[C@H](C(=O)O)c4cc(O)cc(O)c4-c4cc3ccc4O)[C@H](O)c3ccc(c(Cl)c3)Oc3cc2cc(c3O[C@@H]2O[C@H](CO)[C@@H](O)[C@H](O)[C@H]2O[C@H]2C[C@](C)(N)[C@H](O)[C@H](C)O2)Oc2ccc(cc2Cl)[C@H]1O [vancomycin]
Vd [1]: 0.4 to 1 L/kg | Mean drug recovery at 24 h, Quadrox a (Shekar) [2]: 90% | Mean drug recovery, Medos n [3]: 67.1^* % | Spontaneous degradation [4]: 2.4% | Mean drug recovery at 24 h, Quadrox a (Lemaitre) [5]: 100% | Decrease of drug level after 24 h, ILA active ([6]; ILA active circuit, whole blood primed, 24-h exposure): 38% | Mean drug recovery after 24 h of circulation, r-ML ([6]; MiniLung (infant) circuit, whole blood primed, 700 ml/min, 24 h, dose VOR 40 mg, VAN 54 mg, expected level VOR 117.1, VAN 177.1 mg/L, corrected for spontaneous degradation, plasma, LC-MS/MS (VOR) or immune-assay (VAN), mean (±SD), n = 2 circuits, SD): 133.2 (±49.7) mg/L | Mean drug recovery after 24 h of circulation, r-MLP ([6]; MiniLung petite (neonatal) circuit, whole blood primed, 500 ml/min, 24 h, dose VOR 35 mg, VAN 45 mg, expected level VOR 140, VAN 180 mg/L, corrected for spontaneous degradation, plasma, LC-MS/MS (VOR) or immune-assay (VAN), mean (±SD), n = 3 circuits, SD): 112 (±31.6) mg/L | Decrease of drug level after 24 h, XLung ([6]; XLung circuit, whole blood primed, 24-h exposure): 50% | Mean drug recovery after 24 h of circulation, r-XL ([6]; Xlung (adult) circuit, whole blood primed, […], 24 h, dose VOR 68 mg, VAN 91.8 mg, expected level VOR 143.2, VAN 193.7 mg/L, corrected for spontaneous degradation, plasma, LC-MS/MS (VOR) or immune-assay (VAN), mean (±SD), n = 2 circuits, SD): 96.5 (±13.5) mg/L | Mean drug recovery at 24 h, ML ([6]; current experiment, MiniLung circuit, whole blood primed, volume 310 ml, 24 h, n = 2): 73% | Mean drug recovery at 24 h, MLP ([6]; current experiment, MiniLung petite circuit, whole blood primed, volume 250 ml, 24 h, n = 3): 60% | Mean drug recovery at 24 h, Xlung ([6]; current experiment, Xlung circuit, whole blood primed, volume 480 ml, 24 h, n = 2): 48% | Mean drug recovery at 24 h, iLA ([6]; current experiment, iLAActivve circuit, whole blood primed, volume 400 ml, 24 h, n = 2): 60% | Mean drug recovery after 24 h of circulation, r-iLA ([6]; iLAActivve iLA (pediatric) circuit, whole blood primed, […], 24 h, dose VOR 52.5 mg, VAN 67.5 mg, expected level VOR 134.7, VAN 173.2 mg/L, corrected for spontaneous degradation, plasma, LC-MS/MS (VOR) or immune-assay (VAN), mean (±SD), n = 2 circuits): 108.5 (±4,4) mg/L | Mean percentage of drug recovery at 24 h ([6]; mean over all nine whole-blood primed circuits (MLP, ML, iLA, XLung), single bolus, pre-membrane (P2) plasma samples, 24 h, corrected for average spontaneous degradation, LC-MS/MS (voriconazole), immune-assay Architect (vancomycin), samples in triplicate): 62% | Decrease of drug level after 24 h, minilung ([6]; minilung circuit, whole blood primed, 24-h exposure): 25% | PB % [7]: 50%

C[C@@H](c1ncncc1F)[C@](O)(Cn1cncn1)c1ccc(F)cc1F [voriconazole]
Vd [1]: 4.6 L/kg | PB % [7]: 58% | LogP [8]: 1.8
